What was measured:
[1] = system: transgenic soybean plants with DMO-encoding polynucleotide, Event 2; experiment: Greenhouse post-V3 spray of auxin-like herbicides, visual injury, transgenic Event 2; type: in vivo
Experimental: (§1) An analysis was carried out to determine whether soybean plants having DMO-encoding polynucleotide could deactivate other auxin-like herbicides in addition to dicamba. This was carried out by applying various concentrations of commercially available formulations of other auxin-like herbicides such as 2,4-D (Helena, Collierville, Tenn.), MCPA (Agriliance, St. Paul, Minn.), triclopyr (GARLON 3A; Dow Elanco, Indianapolis, Ind.), clopyralid (STINGER; Dow Elanco, Indianapolis, Ind.), picloram (TORDON 22K; Dow Elanco, Indianapolis, Ind.), or Banvel or Clarity (BASF, Raleigh, N.C.) to DMO containing plant tissues or plants.
(§2) Transgenic soybean plants were obtained by Agrobacterium-mediated transformation of soybean explants with a DMO-encoding polynucleotide as described above for the events designated Events 1-4. A non-transgenic line was used as a control. Non-transgenic and transgenic soybean seeds were planted into 3,5-inch square plastic pots containing Redi-earth™ (Scotts-Sierra Horticultural Products Co., Marysville, Ohio). The pots were placed on capillary matting in 35 inch×60 inch fiberglass watering trays for overhead and/or sub-irrigation for the duration of the test period so as to maintain optimum soil moisture for plant growth. The pots were fertilized with Osmocote (14-14-14 slow release; Scotts-Sierra Horticultural Products Co., Marysville, Ohio) at the rate of 100 gm/cu.ft. to sustain plant growth for the duration of greenhouse trials. The plants were grown in greenhouses at 27°/21° C. day/night temperature, with relative humidity between 25%-75% to simulate warm season growing conditions of late spring. A 14 h minimum photoperiod was provided with supplemental light at about 600 μE as needed.
(§3) All herbicide applications were made with the track sprayer using a Teejet 9501E flat fan nozzle (Spraying Systems Co, Wheaton, Ill.) with air pressure set at a minimum of 24 psi (165 kpa). The spray nozzle was kept at a height of about 16 inches above the top of plant material for spraying. The spray volume was 10 gallons per acre or 93 liters per hectare. Applications were made when plants had reached V-3 stage.
(§4) All treated plants in greenhouse trials were visually assessed at about 4, 14, 18, and 21 days after treatment (DAT) for injury on a scale of 0 to 100 percent relative to untreated control plants, with zero representing “no” injury and 100% representing “complete” injury or death. Data were collected using a palm top computer and analyzed using standard statistical methods.

[2] = system: transgenic soybean plants with DMO-encoding polynucleotide, Event 4; experiment: Greenhouse post-V3 spray of auxin-like herbicides, visual injury, transgenic Event 4; type: in vivo
Experimental: as §1, §2, §3, §4

[3] = system: non-transgenic soybean plants; experiment: Greenhouse post-V3 spray of auxin-like herbicides, visual injury, non-transgenic line; type: in vivo
Experimental: as §1, §2, §3, §4

[4] = system: transgenic soybean plants with DMO-encoding polynucleotide, Event 1; experiment: Greenhouse post-V3 spray of auxin-like herbicides, visual injury, transgenic Event 1; type: in vivo
Experimental: as §1, §2, §3, §4

[5] = system: transgenic soybean plants having DMO-encoding polynucleotide; experiment: Greenhouse injury trial, overall statements for transgenic soybean; type: in vivo; details: for assessment of application rate: 280 g ae/ha, transgenic soybean; for tolerance of transgenic soybean relative to the non-transgenic line: greenhouse trial, post-V3 application
Experimental: as §1, §2, §3, §4

[6] = system: transgenic soybean plants with DMO-encoding polynucleotide, Event 3; experiment: Greenhouse post-V3 spray of auxin-like herbicides, visual injury, transgenic Event 3; type: in vivo
Experimental: as §1, §2, §3, §4

[7] = system: soybean explants inoculated with Agrobacterium harboring pMON73691 (DMO and GFP genes); experiment: Selection of pMON73691-inoculated soybean explants with 2,4-D or dicamba in liquid medium, GFP+ buds; type: cell-based; details: for # Explants w/GFP + buds/young shoots at 48DAI: 375 explants inoculated, pMON73691
Experimental: Freshly isolated soybean explants (mature embryo axes without cotyledons) were inoculated with Agrobacterium strain ABI harboring pMON73691 (containing DMO and GFP genes). After 3-d co-culture with Agrobacterium at 23° C. and a photoperiod of 16-h light and 8-h dark, the explants were cultured in liquid delay medium which contained modified woody plant medium supplemented with 5 mg/l BAP, 200 mg/l carbenicillin, 200 mg/l cefotaxime and 100 mg/l ticarcillin. The explants were in the delay medium for 4 days. They were then transferred to liquid selection medium in PLANTCONs. The selection medium was the same as the delay medium except of addition of various levels of 2,4-D (0.01, 0.1, 1.0 or 2.0 mg/L) or 0.01 mg/L dicamba as shown in Table 9 below. Each PLANTCON contained 60 ml of the selection medium and one piece of foam sponge with 5 slits. Twenty-five explants were evenly inserted into the slits. The cultures were maintained at 28° C. and a photoperiod of 16-h light and 8-h dark, and were examined periodically under a […] equipped for detecting GFP expressing tissues.

Row | Compound | % injury relative to un-treated controls ([1]; 280 g ae/ha, 14 DAT) [%] | % injury relative to un-treated controls ([1]; 561 g ae/ha, 14 DAT) [%] | % injury relative to un-treated controls ([1]; 1120 g ae/ha, 14 DAT) [%] | % injury relative to un-treated controls ([2]; 280 g ae/ha, 14 DAT) [%] | % injury relative to un-treated controls ([2]; 561 g ae/ha, 14 DAT) [%] | % injury relative to un-treated controls ([2]; 1120 g ae/ha, 14 DAT) [%] | % injury relative to un-treated controls ([3]; 280 g ae/ha, 14 DAT) [%] | % injury relative to un-treated controls ([3]; 561 g ae/ha, 14 DAT) [%] | % injury relative to un-treated controls ([3]; 1120 g ae/ha, 14 DAT) [%] | % injury relative to un-treated controls ([4]; 280 g ae/ha, 14 DAT) [%] | % injury relative to un-treated controls ([4]; 561 g ae/ha, 14 DAT) [%] | % injury relative to un-treated controls ([4]; 1120 g ae/ha, 14 DAT) [%] | assessment of application rate [5] | % injury relative to un-treated controls ([6]; 280 g ae/ha, 14 DAT) [%] | % injury relative to un-treated controls ([6]; 561 g ae/ha, 14 DAT) [%] | % injury relative to un-treated controls ([6]; 1120 g ae/ha, 14 DAT) [%] | % injury relative to un-treated controls ([1]; 280 g ae/ha, 21 DAT) [%] | % injury relative to un-treated controls ([1]; 561 g ae/ha, 21 DAT) [%] | % injury relative to un-treated controls ([1]; 1120 g ae/ha, 21 DAT) [%] | % injury relative to un-treated controls ([2]; 280 g ae/ha, 21 DAT) [%] | further results
1 | O=C(O)c1nc(Cl)ccc1Cl [Clopyralid, 3,6-dichloro-2-pyridinecarboxylic acid] | 98.2 | 99.7 | 100.0 | 99.7 | 100.0 | 100.0 | 99.3 | 100.0 | 100.0 | 99.2 | 100.0 | 100.0 | too stringent | 99.3 | 100.0 | 100.0 |  |  |  |  | 
2 | (2,4,5-trichlorophenoxy)acetic acid [Triclopyr] | 86.7 | 98.7 | 99.3 | 90.8 | 98.0 | 99.2 | 86.7 | 97.3 | 98.7 | 88.3 | 95.7 | 99.3 | too stringent | 86.7 | 94.0 | 96.3 |  |  |  |  | 
3 | Cc1cc(Cl)ccc1OCC(=O)O [MCPA, (4-chloro-2-methylphenoxy)acetic acid] |  |  |  |  |  |  |  |  |  |  |  |  |  |  |  |  | 55.0 | 95.0 | 99.7 | 88.3 | % injury relative to un-treated controls ([2]; 561 g ae/ha, 21 DAT): 98.8%; % injury relative to un-treated controls ([2]; 1120 g ae/ha, 21 DAT): 100.0%; % injury relative to un-treated controls ([3]; 280 g ae/ha, 21 DAT): 93.0%; % injury relative to un-treated controls ([3]; 561 g ae/ha, 21 DAT): 98.3%; % injury relative to un-treated controls ([3]; 1120 g ae/ha, 21 DAT): 100.0%; % injury relative to un-treated controls ([4]; 280 g ae/ha, 21 DAT): 72.5%; % injury relative to un-treated controls ([4]; 561 g ae/ha, 21 DAT): 99.3%; % injury relative to un-treated controls ([4]; 1120 g ae/ha, 21 DAT): 100.0%; tolerance of transgenic soybean relative to the non-transgenic line [5]: tolerance; % injury relative to un-treated controls ([6]; 280 g ae/ha, 21 DAT): 55.0%; % injury relative to un-treated controls ([6]; 561 g ae/ha, 21 DAT): 95.8%; % injury relative to un-treated controls ([6]; 1120 g ae/ha, 21 DAT): 100.0%
4 | O=C(O)COc1ccc(Cl)cc1Cl [2,4-D, (2,4-dichlorophenoxy)acetic acid] |  |  |  |  |  |  |  |  |  |  |  |  |  |  |  |  | 64.2 | 94.7 | 100.0 | 45.8 | % injury relative to un-treated controls ([2]; 561 g ae/ha, 21 DAT): 84.2%; % injury relative to un-treated controls ([2]; 1120 g ae/ha, 21 DAT): 100.0%; explant response observed ([7]; 0.01 or 0.1 mg/L in selection medium): extensive shoot growth; explant response observed ([7]; 1 or 2 mg/L in selection medium): Extensive callus development; # Explants w/GFP + buds/young shoots at 48DAI ([7]; selective agent 0.01 mg/L): 33; # Explants w/GFP + buds/young shoots at 48DAI ([7]; selective agent 0.1 mg/L): 19; # Explants w/GFP + buds/young shoots at 48DAI ([7]; selective agent 1 mg/L): 4; # Explants w/GFP + buds/young shoots at 48DAI ([7]; selective agent 2 mg/L): 0; % injury relative to un-treated controls ([3]; 280 g ae/ha, 21 DAT): 86.8%; % injury relative to un-treated controls ([3]; 561 g ae/ha, 21 DAT): 100.0%; % injury relative to un-treated controls ([3]; 1120 g ae/ha, 21 DAT): 100.0%; % injury relative to un-treated controls ([4]; 280 g ae/ha, 21 DAT): 58.3%; % injury relative to un-treated controls ([4]; 561 g ae/ha, 21 DAT): 75.0%; % injury relative to un-treated controls ([4]; 1120 g ae/ha, 21 DAT): 100.0%; tolerance of transgenic soybean relative to the non-transgenic line [5]: tolerance; % injury relative to un-treated controls ([6]; 280 g ae/ha, 21 DAT): 40.0%; % injury relative to un-treated controls ([6]; 561 g ae/ha, 21 DAT): 85.0%; % injury relative to un-treated controls ([6]; 1120 g ae/ha, 21 DAT): 100.0%
5 | Nc1c(Cl)c(Cl)nc(C(=O)O)c1Cl [Picloram, 4-amino-3,5,6-trichloro-2-pyridinecarboxylic acid] | 99.3 | 100.0 | 100.0 | 99.3 | 100.0 | 100.0 | 99.3 | 100.0 | 100.0 | 99.7 | 100.0 | 100.0 | too stringent | 99.3 | 99.7 | 100.0 |  |  |  |  | 

— patent publication USRE44971E1, “Method for selection of transformed cells” (priority 2006, dated 2014)
